Experimental data from patent US20240239894A1, “THERAPEUTIC BINDING MOLECULES” (MedImmune Limited, priority 2020, published 2024).
Non-standard residues stand in square brackets, D forms with d. Residues, ends and D or L forms follow the SMILES beside them. *: point of attachment. Dolaproine = CO[C@@H]([C@@H]1CCCN1)[C@@H](C)C(=O)O; Dil = CC[C@H](C)[C@H](NC)[C@@H](CC(=O)O)OC; X1 = C[C@@H](N*)[C@@H](O)c1ccccc1; NMeV = CN[C@H](C(=O)O)C(C)C

How the values were obtained:
[1] = system: DLD1 wt cells; experiment: 6-day cytotoxicity assay of warheads; type: cell-based; conditions: wild-type cells
Text: (§1) MMAE=negative control, microtubule-inhibitor warhead.
(§2) Additionally, HR-deficiency increases sensitivity to the SG3932 warhead. […] Cell viability was reduced in both wild-type and BRCA2−/− cells when treated with the MMAE warhead.

[2] = system: DLD1 BRCA2−/− cells; experiment: 6-day cytotoxicity assay of warheads; type: cell-based
Text: as §1, §2

Structure (SMILES): CC[C@H](C)[C@@H]([C@@H](CC(=O)N1CCC[C@H]1[C@H](OC)[C@@H](C)C(=O)N[C@H](C)[C@@H](O)c1ccccc1)OC)N(C)C(=O)[C@@H](NC(=O)[C@@H](NC)C(C)C)C(C)C [MMAE] (H-[NMeV]V[Dil][Dolaproine]-X1)
- cell viability [1]: reduced
- cell viability [2]: reduced
